From US20260078120A1, “SUBSTITUTED PYRIDOPYRIMIDINONES” (MIRATI THERAPEUTICS, INC., priority 2022, published 2026)

Assays:
[1] = system: SKBR3 (PI3Kα wild type) cells; assay: CellTiter-Glo 2.0 luminescent cell viability assay, 72 hours, SKBR3 cells; format: cell-based; settings: Homo sapiens, SK-BR-3, 72 h, SKBR3 (PI3Kα wild type) cells, CellTiter-Glo, approximately 72 hours; read-out: SKBR3 (WT) Viability IC50
Outline: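 Viability measured via CTG luminescence following roughly 72 hours of compound exposure at 37° C. Dosing used a 10 um starting concentration diluted 1:4 over 10 points; percent-of-vehicle data fitted with a variable-slope four-parameter model for IC50.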

[2] = system: T47D (PI3Kα H1047R mutant) cells; assay: CellTiter-Glo 2.0 luminescent cell viability assay, 72 hours, T47D cells; format: cell-based; settings: Homo sapiens, T47D, 72 h, T47D (PI3Kα H1047R mutant) cells, CellTiter-Glo, approximately 72 hours; read-out: T47D (H1047R mutant) Viability IC50
Outline: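 Viability was measured by CellTiter-Glo 2.0 luminescence after approximately 72 h of compound exposure at 37° C. Plating was 1000 cells per well the day before dosing, with ten 1:4 dilutions from a 10 µM top concentration. Values as percent of vehicle were fitted by variable-slope log(inhibitor) regression to give IC50.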

Compound | IC50 [1] | IC50 [2]
Cc1cc([C@@H](C)Nc2ccccc2C(=O)O)c2nc(N3CCN(c4cccc(C#N)c4)CC3)c(C)c(=O)n2c1 [Example 11-226, (R)-2-((1-(2-(4-(3-cyanophenyl)piperazin-1-yl)-3,7-dimethyl-4-oxo-4H-pyrido[1,2-a]pyrimidin-9-yl)ethyl)amino)benzoic acid] | > 10000 nM | 282 nM
Cc1cc([C@@H](C)Nc2ccccc2)c2nc(N3Cc4ccccc4C3)c(C#N)c(=O)n2c1 [Example 11-301, (R)-2-(isoindolin-2-yl)-7-methyl-4-oxo-9-(1-(phenylamino)ethyl)-4H-pyrido[1,2-a]pyrimidine-3-carbonitrile] | 8820 nM | 9150 nM
Cc1cc([C@@H](C)Nc2ccccc2C(=O)O)c2nc(N3CCN(c4cccc(C#N)c4)C[C@H]3C)c(C#N)c(=O)n2c1 [Example 11-84, 2-(((R)-1-(3-cyano-2-((R)-4-(3-cyanophenyl)-2-methylpiperazin-1-yl)-7-methyl-4-oxo-4H-pyrido[1,2-a]pyrimidin-9-yl)ethyl)amino)benzoic acid] | 952 nM | 139 nM
Cc1cc(C(=O)NC2CCCCC2C(=O)O)c2nc(N3CCCCC3)c(C#N)c(=O)n2c1 (stereo not shown) [Example 11-315, 2-(3-cyano-7-methyl-4-oxo-2-(piperidin-1-yl)-4H-pyrido[1,2-a]pyrimidine-9-carboxamido)cyclohexane-1-carboxylic acid] | > 10000 nM | > 10000 nM
Cc1cc([C@@H](C)Nc2ccccc2C(=O)O)c2nc(-c3cn(C)cn3)c(C)c(=O)n2c1 [Example 11-234, (R)-2-((1-(3,7-dimethyl-2-(1-methyl-1H-imidazol-4-yl)-4-oxo-4H-pyrido[1,2-a]pyrimidin-9-yl)ethyl)amino)benzoic acid] | > 10000 nM | 999 nM
Cc1cc([C@@H](C)Nc2ccccc2C(=O)O)c2nc(N3CCN(c4cnn(C)c4)CC3)c(C#N)c(=O)n2c1 [Example 11-264, (R)-2-((1-(3-cyano-7-methyl-2-(4-(1-methyl-1H-pyrazol-4-yl)piperazin-1-yl)-4-oxo-4H-pyrido[1,2-a]pyrimidin-9-yl)ethyl)amino)benzoic acid] | > 10000 nM | 1180 nM
Cc1cc([C@@H](C)Nc2ccccc2C(=O)O)c2nc(N3CC4CC5CC4C3C5O)c(C)c(=O)n2c1 (stereo partly drawn) [Example 11-22, 2-(((1R)-1-(2-(6-hydroxyhexahydro-3,5-methanocyclopenta[b]pyrrol-1(2H)-yl)-3,7-dimethyl-4-oxo-4H-pyrido[1,2-a]pyrimidin-9-yl)ethyl)amino)benzoic acid] | > 10000 nM | 192 nM
Cc1cc([C@@H](C)Nc2ccc(F)nc2C(=O)O)c2nc(N3CCC(F)(F)CC3)c(C#N)c(=O)n2c1 [Example 11-44, (R)-3-((1-(3-cyano-2-(4,4-difluoropiperidin-1-yl)-7-methyl-4-oxo-4H-pyrido[1,2-a]pyrimidin-9-yl)ethyl)amino)-6-fluoropicolinic acid] | > 10000 nM | 9550 nM
COc1ccc(C2CCN(c3nc4c([C@@H](C)Nc5ccccc5C(=O)O)cc(C)cn4c(=O)c3C)CC2)cc1 [Example 11-39, (R)-2-((1-(2-(4-(4-methoxyphenyl)piperidin-1-yl)-3,7-dimethyl-4-oxo-4H-pyrido[1,2-a]pyrimidin-9-yl)ethyl)amino)benzoic acid] | > 10000 nM | 114 nM
Cc1cc([C@@H](C)Nc2ccccc2C(=O)O)c2nc(N3CCC(c4cc[nH]n4)CC3)c(C#N)c(=O)n2c1 [Example 11-53, (R)-2-((1-(2-(4-(1H-pyrazol-3-yl)piperidin-1-yl)-3-cyano-7-methyl-4-oxo-4H-pyrido[1,2-a]pyrimidin-9-yl)ethyl)amino)benzoic acid] | > 10000 nM | 2520 nM
Cc1cc([C@@H](C)Nc2ccccc2C(=O)O)c2nc(N3CCC(c4ccncc4)C3)c(C)c(=O)n2c1 (stereo partly drawn) [Example 10-9, 2-(((1R)-1-(3,7-dimethyl-4-oxo-2-(3-(pyridin-4-yl)pyrrolidin-1-yl)-4H-pyrido[1,2-a]pyrimidin-9-yl)ethyl)amino)benzoic acid] | > 10000 nM | 24.8 nM

More lines, now with the values ahead:

IC50 [1] | IC50 [2] | Compound
> 10000 nM | 173 nM | Cc1cc([C@@H](C)Nc2ccccc2C(=O)O)c2nc(N3Cc4ccccc4C3CO)c(C)c(=O)n2c1 (stereo partly drawn) [Example 11-19, 2-(((1R)-1-(2-(1-(hydroxymethyl)isoindolin-2-yl)-3,7-dimethyl-4-oxo-4H-pyrido[1,2-a]pyrimidin-9-yl)ethyl)amino)benzoic acid]
> 10000 nM | 641 nM | Cc1cc([C@@H](C)Nc2ccccc2C(=O)O)c2nc(N3CCC4(C3)CC(F)(F)C4(F)F)c(C)c(=O)n2c1 (stereo partly drawn) [Example 11-436, 2-(((1R)-1-(3,7-dimethyl-4-oxo-2-(1,1,2,2-tetrafluoro-6-azaspiro[3.4]octan-6-yl)-4H-pyrido[1,2-a]pyrimidin-9-yl)ethyl)amino)benzoic acid]
> 10000 nM | 1300 nM | COc1cccc(-c2cc(=O)n3cc(C)cc(C(C)Nc4ccccc4C(=O)O)c3n2)c1 (stereo not shown) [Example 11-393, 2-((1-(2-(3-methoxyphenyl)-7-methyl-4-oxo-4H-pyrido[1,2-a]pyrimidin-9-yl)ethyl)amino)benzoic acid]
> 10000 nM | > 10000 nM | Cc1cc([C@@H](C)Nc2ccncc2C(=O)O)c2nc(N3CCC(F)(F)CC3)c(C#N)c(=O)n2c1 [Example 11-142, (R)-4-((1-(3-cyano-2-(4,4-difluoropiperidin-1-yl)-7-methyl-4-oxo-4H-pyrido[1,2-a]pyrimidin-9-yl)ethyl)amino)nicotinic acid]
9810 nM | 481 nM | Cc1cc(C(C)Nc2ccc(Cl)nc2C(=O)O)c2nc(N3CCCCC3)c(C#N)c(=O)n2c1 (stereo not shown) [Example 11-332, 6-chloro-3-((1-(3-cyano-7-methyl-4-oxo-2-(piperidin-1-yl)-4H-pyrido[1,2-a]pyrimidin-9-yl)ethyl)amino)picolinic acid]
> 10000 nM | 130 nM | Cc1cc([C@@H](C)Nc2ccccc2C(=O)O)c2nc(N3CC4(C3)CC4(F)F)c(C#N)c(=O)n2c1 [Example 11-102, (R)-2-((1-(3-cyano-2-(1,1-difluoro-5-azaspiro[2.3]hexan-5-yl)-7-methyl-4-oxo-4H-pyrido[1,2-a]pyrimidin-9-yl)ethyl)amino)benzoic acid]
> 10000 nM | 1060 nM | Cc1cc([C@@H](C)Nc2ccccc2C(=O)O)c2nc(N3CC4(CN(c5ccc(C#N)cc5)C4)C3)c(C)c(=O)n2c1 [Example 11-191, (R)-2-((1-(2-(6-(4-cyanophenyl)-2,6-diazaspiro[3.3]heptan-2-yl)-3,7-dimethyl-4-oxo-4H-pyrido[1,2-a]pyrimidin-9-yl)ethyl)amino)benzoic acid]
> 10000 nM | 24.2 nM | Cc1cc([C@@H](C)Nc2ccccc2C(=O)O)c2nc(N3CCCC4(CCC4O)C3)c(C)c(=O)n2c1 (stereo partly drawn) [Example 10-8, 2-(((1R)-1-(2-(1-hydroxy-6-azaspiro[3.5]nonan-6-yl)-3,7-dimethyl-4-oxo-4H-pyrido[1,2-a]pyrimidin-9-yl)ethyl)amino)benzoic acid]
> 10000 nM | 280 nM | Cc1cc([C@@H](C)Nc2ccccc2C(=O)O)c2nc(N3CCN(c4ccc(C#N)c5ccc(O)cc45)CC3)c(C)c(=O)n2c1 [Example 11-255, (R)-2-((1-(2-(4-(4-cyano-7-hydroxynaphthalen-1-yl)piperazin-1-yl)-3,7-dimethyl-4-oxo-4H-pyrido[1,2-a]pyrimidin-9-yl)ethyl)amino)benzoic acid]
> 10000 nM | 301 nM | Cc1cc([C@@H](C)Nc2ccc(Cl)nc2C(=O)O)c2nc(N3CCCCC3)c(C#N)c(=O)n2c1 [Example 11-331, (R)-6-chloro-3-((1-(3-cyano-7-methyl-4-oxo-2-(piperidin-1-yl)-4H-pyrido[1,2-a]pyrimidin-9-yl)ethyl)amino)picolinic acid]
> 10000 nM | 330 nM | Cc1cc([C@@H](C)Nc2ccccc2C(=O)O)c2nc(N3CCN(c4ccc(C(F)(F)F)cc4C#N)C[C@@H]3C)c(C)c(=O)n2c1 [Example 11-80, 2-(((R)-1-(2-((S)-4-(2-cyano-4-(trifluoromethyl)phenyl)-2-methylpiperazin-1-yl)-3,7-dimethyl-4-oxo-4H-pyrido[1,2-a]pyrimidin-9-yl)ethyl)amino)benzoic acid]
> 10000 nM | 1600 nM | Cc1cc([C@@H](C)Nc2ccccc2C(=O)O)c2nc(NCC3COC3)c(C#N)c(=O)n2c1 [Example 11-204, (R)-2-((1-(3-cyano-7-methyl-2-((oxetan-3-ylmethyl)amino)-4-oxo-4H-pyrido[1,2-a]pyrimidin-9-yl)ethyl)amino)benzoic acid]
> 10000 nM | 212 nM | Cc1cc([C@@H](C)Nc2ccccc2C(=O)O)c2nc(-c3cnn(-c4ccc(C#N)cc4)c3)c(C)c(=O)n2c1 [Example 11-233, (R)-2-((1-(2-(1-(4-cyanophenyl)-1H-pyrazol-4-yl)-3,7-dimethyl-4-oxo-4H-pyrido[1,2-a]pyrimidin-9-yl)ethyl)amino)benzoic acid]
> 10000 nM | 313 nM | Cc1cc([C@@H](C)Nc2ccccc2C(=O)O)c2nc(NCC(C)C)c(C)c(=O)n2c1 [Example 11-309, (R)-2-((1-(2-(isobutylamino)-3,7-dimethyl-4-oxo-4H-pyrido[1,2-a]pyrimidin-9-yl)ethyl)amino)benzoic acid]
> 10000 nM | 3630 nM | Cc1cc(C(C)Nc2ccccc2C(=O)O)c2nc(C3CCN(C)C(=O)C3)cc(=O)n2c1 (stereo not shown) [Example 11-377, 2-((1-(7-methyl-2-(1-methyl-2-oxopiperidin-4-yl)-4-oxo-4H-pyrido[1,2-a]pyrimidin-9-yl)ethyl)amino)benzoic acid]
